According to ChEMBL document CHEMBL1146116, “N-thiolated 2-oxazolidinones: a new family of antibacterial agents for methicillin-resistant Staphylococcus aureus and Bacillus anthracis” (2006):
In brackets after ≈: the same amount, converted by molar mass.

How the values were obtained:
Format in all cases: functional
[1] = tested on: Staphylococcus aureus; experiment: Antibacterial activity against methicillin-resistant Staphylococcus aureus USF919 ATCC 43300 by agar disk diffusion method
[2] = tested on: Staphylococcus aureus; experiment: Antibacterial activity against methicillin-resistant Staphylococcus aureus USF920 ATCC 33591 by agar disk diffusion method
[3] = tested on: Staphylococcus aureus; experiment: Antibacterial activity against Staphylococcus aureus 849 ATCC 25923 by agar disk diffusion method
[4] = tested on: Staphylococcus aureus; experiment: Antibacterial activity against methicillin-resistant Staphylococcus aureus USF653 by agar disk diffusion method
[5] = tested on: Staphylococcus aureus; experiment: Antibacterial activity against methicillin-resistant Staphylococcus aureus USF654 by agar disk diffusion method
[6] = tested on: Staphylococcus aureus; experiment: Antibacterial activity against methicillin-resistant Staphylococcus aureus USF655 by agar disk diffusion method
[7] = tested on: Staphylococcus aureus; experiment: Antibacterial activity against methicillin-resistant Staphylococcus aureus USF656 by agar disk diffusion method
[8] = tested on: Staphylococcus aureus; experiment: Antibacterial activity against methicillin-resistant Staphylococcus aureus USF657 by agar disk diffusion method
[9] = tested on: Staphylococcus aureus; experiment: Antibacterial activity against methicillin-resistant Staphylococcus aureus USF658 by agar disk diffusion method
[10] = tested on: Staphylococcus aureus; experiment: Antibacterial activity against methicillin-resistant Staphylococcus aureus USF659 by agar disk diffusion method
[11] = tested on: Staphylococcus aureus; experiment: Antibacterial activity against methicillin-resistant Staphylococcus aureus USF652 by agar disk diffusion method
[12] = tested on: Heyndrickxia coagulans; experiment: Antibacterial activity against Bacillus coagulans by agar disk diffusion method
[13] = tested on: Staphylococcus aureus; experiment: Antibacterial activity against methicillin-resistant Staphylococcus aureus
[14] = tested on: Staphylococcus aureus; experiment: Antibacterial activity against Staphylococcus aureus
[15] = tested on: Bacillus subtilis; experiment: Antibacterial activity against Bacillus globigii by agar disk diffusion method
[16] = tested on: Bacillus thuringiensis; experiment: Antibacterial activity against Bacillus thuringiensis by agar disk diffusion method
[17] = tested on: Priestia megaterium; experiment: Antibacterial activity against Bacillus megaterium by agar disk diffusion method
[18] = tested on: Bacillus subtilis; experiment: Antibacterial activity against Bacillus subtilis by agar disk diffusion method
[19] = tested on: Bacillus cereus; experiment: Antibacterial activity against Bacillus cereus by agar disk diffusion method

Compound | inhibition zone (IZ) [1] [mm] | inhibition zone (IZ) [2] [mm] | inhibition zone (IZ) [3] [mm] | inhibition zone (IZ) [4] [mm] | inhibition zone (IZ) [5] [mm] | inhibition zone (IZ) [6] [mm] | inhibition zone (IZ) [7] [mm] | inhibition zone (IZ) [8] [mm] | inhibition zone (IZ) [9] [mm] | inhibition zone (IZ) [10] [mm] | inhibition zone (IZ) [11] [mm] | inhibition zone (IZ) [12] [mm] | MIC [13] [µg/mL] | MIC [14] [µg/mL] | inhibition zone (IZ) [15] [mm] | inhibition zone (IZ) [16] [mm] | inhibition zone (IZ) [17] [mm] | inhibition zone (IZ) [18] [mm] | inhibition zone (IZ) [19] [mm]
CCC(C)SN1CC(CCl)OC1=O (stereo not given) | 19 | 19 | 19 | 20 | 22 | 22 | 20 | 22 | 21 | 20 | 19 |  |  |  |  |  |  |  | 
CSN1C(=O)OC[C@H]1c1ccccc1 | 28 | 28 | 29 | 30 | 26 | 28 | 28 | 27 | 27 | 26 | 30 | 17 | 8 (≈ 38.2 µM) | 8 (≈ 38.2 µM) | 17 | 15 | 20 | 19 | 23
CSN1CC(CCl)OC1=O (stereo not given) | 20 | 16 | 21 | 20 | 20 | 20 | 22 | 21 | 18 | 19 | 16 |  |  |  |  |  |  |  | 
CSN1C(=O)OCC1Cc1ccccc1 (stereo not given) | 19 | 19 | 17 | 20 | 18 | 17 | 19 | 19 | 17 | 19 | 17 |  |  |  |  |  |  |  | 
CSN1C(=O)O[C@@H](CN=[N+]=[N-])[C@@H]1c1ccccc1 | 32 | 32 | 31 | 32 | 30 | 30 | 31 | 30 | 31 | 28 | 30 |  |  |  |  |  |  |  | 
CSN1C(=O)OC[C@@H]1C(C)C | 21 | 18 | 20 | 27 | 23 | 22 | 22 | 22 | 16 | 22 | 19 | 17 | 16 (≈ 91.3 µM) | 16 (≈ 91.3 µM) | 15 | 16 | 18 | 17 | 22
CSN1C(=O)OC[C@H]1C(C)C | 13 | 15 | 21 | 25 | 20 | 18 | 20 | 19 | 19 | 22 | 12 | 0 |  |  | 17 | 0 | 10 | 19 | 15
COC(=O)[C@@H]1OC(=O)N(SC)[C@H]1c1ccccc1 | 11 | 0 | 16 | 19 | 14 | 14 | 15 | 12 | 14 | 16 | 12 |  |  |  |  |  |  |  | 
CC1(C)S[C@@H]2[C@H](NC(=O)Cc3ccccc3)C(=O)N2[C@H]1C(=O)O [PENICILLIN G] |  |  | 33 | 15 | 10 | 14 | 12 | 12 | 19 | 16 | 8 |  |  |  |  |  |  |  | 
CSN1C(=O)OC[C@@H]1c1ccccc1 | 30 | 28 | 30 | 31 | 29 | 29 | 31 | 29 | 29 | 26 | 30 | 17 |  |  | 15 | 17 | 18 | 19 | 24
CO[C@H]1C(=O)N(SC)[C@H]1c1ccccc1 |  |  | 25 | 30 | 26 | 25 | 28 | 27 | 26 | 24 | 30 |  |  |  |  |  |  |  | 
